{
  "source": "patent US11903962B1",
  "about": "“Isoxazoline complexes and compositions thereof” (priority 2023, dated 2024)",
  "key": {"[1]": {"settings": "room temperature, various compositions; cited from earlier work"}, "[2]": {"test": "Water solubility of cyclodextrin complexes with or without polysorbate 80 / polypowder", "type": "physicochemical", "settings": "aqueous with cosolvent or surfactant or cyclodextrin, complexed with hpbcd, read-out: solubility when complexed with hpbcd"}},
  "data": [
    {"compound": "Cc1cc(C2=NOC(c3cc(Cl)cc(Cl)c3)(C(F)(F)F)C2)ccc1C(=O)NCC(=O)NCC(F)(F)F", "note": "(centres unmarked) [Fluralaner, 4-[5-(3,5-dichlorophenyl)-5-trifluoromethyl-4,5-dihydroisoxazol-3-yl]-2-methyl-N-[(2,2,2-trifluoro-ethylcarbamoyl)-methyl]-benzamide]", "values": [
      {"measurement": "degradation by water", "setting": "[1]", "result": "≤ 48", "unit": "h"}
    ]},
    {"compound": "O=C(NN1C(=O)[C@@H]2[C@@H]3C=C[C@@H]([C@H]4C[C@@H]34)[C@@H]2C1=O)c1ccc(C(F)(F)F)cc1", "note": "[tecovirimat]", "values": [
      {"measurement": "solubility", "setting": "[2]", "result": "> 10000", "unit": "µg/mL"}
    ]}
  ]
}
